{"source": "patent US9717727B2", "about": "“Methods of treating and preventing leukemia and other cancers of the blood and bone” (The Trustees of Columbia University in the City of New York, priority 2011, dated 2017)", "key": {"serotonin": {"tested_on": "serotonin", "conditions": "six consecutive doses, cited from earlier work"}, "EL4 cells": {"tested_on": "EL4 cells", "experiment": "Injection of EL4 cells pre-treated with LP-533401 or serotonin into syngeneic mice (Example 13)", "assay_type": "in vivo", "conditions": "cells treated before injection; LP-533401 0.1 to 1-fold serum concentration, serotonin 25 to 100 μM", "experimental": "(§1) EL4 cells and WEH-3B cells, as described in Example 2, were treated with either LP-533401 or serotonin LP-533401 treatments were performed at 0.1 to 1-fold the amount equivalent to the LP-533401 serum concentration in mice treated with this compound. Serotonin was given at concentrations ranging from 25 to 100 μM, doses at which it affects the proliferation of cells expressing serotonin receptors (Kode et al. (2012); Yadav et al. (2008) Serafeim et al. (2003)).\nEL4 cells treated with LP-533401 or serotonin were then injected into syngeneic mice as described in Example 2 to monitor leukemia engraftment, as commonly described for evaluating potential direct effects of compounds on leukemia cells (Moellering et al. (2009))."}, "[1]": {"tested_on": "myeloid or the lymphoblastic leukemia cells", "experiment": "Serotonin treatment of leukemia cells, proliferation or survival", "assay_type": "cell-based", "experimental": "as §1"}}, "note": "“Also recorded” adds a separate entry of the source. Where two headings read alike, the source gives them in different places."}
{"smiles": "CCOC(=O)[C@@H](N)Cc1ccc(-c2cc(OC(c3ccc(-c4cccc(F)c4)cc3)C(F)(F)F)nc(N)n2)cc1", "note": "(some centres unmarked) [LP-615819]", "values": [{"measurement": "serotonin levels in the small intestine lowered", "setting": "serotonin; 30 mg/kg twice per day", "result": 55, "unit": "%"}, {"measurement": "serotonin levels in the small intestine lowered", "setting": "serotonin; 90 mg/kg twice per day", "result": 70, "unit": "%"}, {"measurement": "brain-derived serotonin", "setting": "serotonin; 30 or 90 mg/kg twice per day", "result": "unchanged"}]}
{"smiles": "NCCc1c[nH]c2ccc(O)cc12", "note": "[serotonin, 5-hydroxytryptamine]", "values": [{"measurement": "leukemia outcome (burden and lethality) after injection of pre-treated EL4 cells", "setting": "EL4 cells", "result": "neither implantation of serotonin-treated leukemia cells affected leukemia progression; also recorded: neither of the two treatments altered leukemia outcome"}, {"measurement": "proliferation or survival of leukemia cells", "setting": "[1]", "result": "no effect"}]}
